Results published in patent US12152024B2, “Pesticidally active heterocyclic derivatives with sulphur and hydroxylamine substituents” (SYNGENTA PARTICIPATIONS AG, priority 2016, dated 2024).

Experiments:
Assay type in all cases: in vivo
[1] = system: Euschistus heros (Neotropical Brown Stink Bug); test: Activity against Euschistus heros (neotropical brown stink bug), soybean leaves sprayed; details: 120 h, application rate 200 ppm, N2 nymphs, 5 days after infestation, read-out: effect in at least one of the two categories (mortality or growth inhibition)
Description: Soybean leaves on agar in 24-well microtiter plates were sprayed with aqueous test solutions prepared from 10′000 ppm DMSO stock solutions. After drying the leaves were infested with N2 nymphs. The samples were assessed for mortality and growth inhibition in comparison to untreated samples 5 days after infestation.

[2] = system: Myzus persicae (Green Peach Aphid); test: Activity against Myzus persicae (green peach aphid): feeding/contact activity; details: for mortality at 200 ppm: Myzus persicae, 144 h, application rate 200 ppm, feeding/contact, mixed ages, 6 days after infestation
Description: Sunflower leaf discs were placed onto agar in a 24-well microtiter plate and sprayed with aqueous test solutions prepared from 10′000 ppm DMSO stock solutions. After drying, the leaf discs were infested with an aphid population of mixed ages. The samples were assessed for mortality 6 days after infestation.

[3] = system: Spodoptera littoralis (Egyptian Cotton Leaf Worm); test: Activity against Spodoptera littoralis (Egyptian cotton leaf worm), cotton leaf discs sprayed; details: for percent control (mortality, anti-feedant effect or growth inhibition) at 200 ppm: foliar, 72 h, application rate 200 ppm, L1 larvae, 3 days after infestation, read-out: control (mortality, anti-feeding effect or growth inhibition)
Description: Cotton leaf discs were placed onto agar in 24-well microtiter plates and sprayed with aqueous test solutions prepared from 10′000 ppm DMSO stock solutions. After drying the leaf discs were infested with five L1 larvae. The samples were assessed for mortality, anti-feeding effect, and growth inhibition in comparison to untreated samples 3 days after infestation. Control of Spodoptera littoralis by a test sample is given when at least one of the categories mortality, anti-feedant effect, and growth inhibition is higher than the untreated sample.

[4] = system: Diabrotica balteata (corn root worm); test: Activity against Diabrotica balteata (corn root worm), maize sprouts sprayed; details: for percent effect (mortality or growth inhibition) at 200 ppm: 96 h, application rate 200 ppm, L2 larvae, 4 days after infestation, read-out: effect in at least one of the two categories (mortality or growth inhibition)
Description: Maize sprouts placed onto an agar layer in 24-well microtiter plates were treated with aqueous test solutions prepared from 10′000 ppm DMSO stock solutions by spraying. After drying, the plates were infested with L2 larvae (6 to 10 per well). The samples were assessed for mortality and growth inhibition in comparison to untreated samples 4 days after infestation.

[5] = system: Myzus persicae (Green Peach Aphid); test: Activity against Myzus persicae (green peach aphid): systemic activity; details: for mortality at 24 ppm: Myzus persicae, 144 h, test rate 24 ppm, systemic, pea seedling roots in test solution, 6 days
Description: Roots of pea seedlings infested with an aphid population of mixed ages were placed directly into aqueous test solutions prepared from 10′000 DMSO stock solutions. The samples were assessed for mortality 6 days after placing seedlings into test solutions.

[6] = system: Plutella xylostella (Diamond Back Moth); test: Activity against Plutella xylostella (diamond back moth), artificial diet; details: for percent effect (mortality or growth inhibition) at 200 ppm: 120 h, application rate 200 ppm, L2 larvae, 5 days after infestation, read-out: effect in at least one of the two categories (mortality or growth inhibition)
Description: 24-well microtiter plates with artificial diet were treated with aqueous test solutions prepared from 10′000 ppm DMSO stock solutions by pipetting. After drying, the plates were infested with L2 larvae (10 to 15 per well). The samples were assessed for mortality and growth inhibition in comparison to untreated samples 5 days after infestation.

[7] = system: Bemisia tabaci (Cotton White Fly); test: Activity against Bemisia tabaci (cotton white fly); details: 144 h, application rate 200 ppm, adult white flies, 6 days after incubation
Description: Cotton leaf discs were placed on agar in 24-well microtiter plates and sprayed with aqueous test solutions prepared from 10′000 ppm DMSO stock solutions. After drying the leaf discs were infested with adult white flies. The samples were checked for mortality 6 days after incubation.

CCSc1ccccc1-c1nc2cc(C(F)(F)F)n(OC)c(=O)c2n1C [Compound A22, 2-(2-ethylsulfanylphenyl)-5-methoxy-3-methyl-6-(trifluoromethyl)imidazo[4,5-c]pyridin-4-one]
percent effect (mortality or growth inhibition) at 200 ppm [1]: ≥ 80%
mortality at 200 ppm [2]: ≥ 80%
percent control (mortality, anti-feedant effect or growth inhibition) at 200 ppm [3]: ≥ 80%
percent effect (mortality or growth inhibition) at 200 ppm [4]: ≥ 80%
mortality at 24 ppm [5]: ≥ 80%
percent effect (mortality or growth inhibition) at 200 ppm [6]: ≥ 80%

CCSc1cc(C(F)(F)F)cnc1-c1nc2cc(C(F)(F)F)n(OC)c(=O)c2n1C [Compound A21, 2-[3-ethylsulfanyl-5-(trifluoromethyl)-2-pyridyl]-5-methoxy-3-methyl-6-(trifluoromethyl)imidazo[4,5-c]pyridin-4-one]
percent effect (mortality or growth inhibition) at 200 ppm [1]: ≥ 80%
mortality at 200 ppm [2]: ≥ 80%
percent control (mortality, anti-feedant effect or growth inhibition) at 200 ppm [3]: ≥ 80%
percent effect (mortality or growth inhibition) at 200 ppm [4]: ≥ 80%
percent effect (mortality or growth inhibition) at 200 ppm [6]: ≥ 80%

CCS(=O)(=O)c1ccc(N)nc1-c1nc2cc(C(F)(F)F)n(OC)c(=O)c2n1C [Compound A13, 2-(6-amino-3-ethylsulfonyl-2-pyridyl)-5-methoxy-3-methyl-6-(trifluoromethyl)imidazo[4,5-c]pyridin-4-one]
percent effect (mortality or growth inhibition) at 200 ppm [1]: ≥ 80%
mortality at 200 ppm [2]: ≥ 80%
mortality at 200 ppm [7]: ≥ 80%
percent control (mortality, anti-feedant effect or growth inhibition) at 200 ppm [3]: ≥ 80%
percent effect (mortality or growth inhibition) at 200 ppm [4]: ≥ 80%
mortality at 24 ppm [5]: ≥ 80%
percent effect (mortality or growth inhibition) at 200 ppm [6]: ≥ 80%

CCS(=O)(=O)c1cc(C(C)(C)C#N)ccc1-c1nc2cc(C(F)(F)F)n(OC)c(=O)c2n1C [Compound A15, 2-[3-ethylsulfonyl-4-[5-methoxy-3-methyl-4-oxo-6-(trifluoromethyl)imidazo[4,5-c]pyridin-2-yl]phenyl]-2-methyl-propanenitrile]
percent effect (mortality or growth inhibition) at 200 ppm [1]: ≥ 80%
mortality at 200 ppm [2]: ≥ 80%
mortality at 200 ppm [7]: ≥ 80%
percent effect (mortality or growth inhibition) at 200 ppm [4]: ≥ 80%
mortality at 24 ppm [5]: ≥ 80%
percent effect (mortality or growth inhibition) at 200 ppm [6]: ≥ 80%

CCSc1cccnc1-c1nc2cc(C(F)(F)F)n(OC)c(=O)c2n1C [Compound A1, 2-(3-ethylsulfanyl-2-pyridyl)-5-methoxy-3-methyl-6-(trifluoromethyl) imidazo[4,5-c]pyridin-4-one]
mortality at 200 ppm [2]: ≥ 80%
percent control (mortality, anti-feedant effect or growth inhibition) at 200 ppm [3]: ≥ 80%
percent effect (mortality or growth inhibition) at 200 ppm [4]: ≥ 80%
percent effect (mortality or growth inhibition) at 200 ppm [6]: ≥ 80%

CCS(=O)(=O)c1cc(C(F)(F)F)cnc1-c1nc2cc(C(F)(F)F)n(OC)c(=O)c2n1C [Compound A6, 2-[3-ethylsulfonyl-5-(trifluoromethyl)-2-pyridyl]-5-methoxy-3-methyl-6-(trifluoromethyl)imidazo[4,5-c]pyridin-4-one]
percent effect (mortality or growth inhibition) at 200 ppm [1]: ≥ 80%
mortality at 200 ppm [2]: ≥ 80%
percent control (mortality, anti-feedant effect or growth inhibition) at 200 ppm [3]: ≥ 80%
percent effect (mortality or growth inhibition) at 200 ppm [4]: ≥ 80%
mortality at 24 ppm [5]: ≥ 80%
percent effect (mortality or growth inhibition) at 200 ppm [6]: ≥ 80%

CCS(=O)(=O)c1ccccc1-c1nc2cc(C(F)(F)F)n(OC)c(=O)c2n1C [Compound A7, 2-(2-ethylsulfonylphenyl)-5-methoxy-3-methyl-6-(trifluoromethyl)imidazo[4,5-c]pyridin-4-one]
percent effect (mortality or growth inhibition) at 200 ppm [1]: ≥ 80%
mortality at 200 ppm [2]: ≥ 80%
percent control (mortality, anti-feedant effect or growth inhibition) at 200 ppm [3]: ≥ 80%
percent effect (mortality or growth inhibition) at 200 ppm [4]: ≥ 80%
mortality at 24 ppm [5]: ≥ 80%
percent effect (mortality or growth inhibition) at 200 ppm [6]: ≥ 80%

CCS(=O)(=O)c1ccc(-n2nccn2)nc1-c1nc2cc(C(F)(F)F)n(OC)c(=O)c2n1C [Compound A5, 2-[3-ethylsulfonyl-6-(triazol-2-yl)-2-pyridyl]-5-methoxy-3-methyl-6-(trifluoromethyl)imidazo[4,5-c]pyridin-4-one]
percent effect (mortality or growth inhibition) at 200 ppm [1]: ≥ 80%
mortality at 200 ppm [2]: ≥ 80%
percent control (mortality, anti-feedant effect or growth inhibition) at 200 ppm [3]: ≥ 80%
percent effect (mortality or growth inhibition) at 200 ppm [4]: ≥ 80%
mortality at 24 ppm [5]: ≥ 80%
percent effect (mortality or growth inhibition) at 200 ppm [6]: ≥ 80%

CCS(=O)(=O)c1cc(Br)c(N)nc1-c1nc2cc(C(F)(F)F)n(OC)c(=O)c2n1C [Compound A16, 2-(6-amino-5-bromo-3-ethylsulfonyl-2-pyridyl)-5-methoxy-3-methyl-6-(trifluoromethyl)imidazo[4,5-c]pyridin-4-one]
percent effect (mortality or growth inhibition) at 200 ppm [1]: ≥ 80%
mortality at 200 ppm [2]: ≥ 80%
percent control (mortality, anti-feedant effect or growth inhibition) at 200 ppm [3]: ≥ 80%
percent effect (mortality or growth inhibition) at 200 ppm [4]: ≥ 80%
percent effect (mortality or growth inhibition) at 200 ppm [6]: ≥ 80%

CCSc1cc(C2(C#N)CC2)ccc1-c1nc2cc(C(F)(F)F)n(OC)c(=O)c2n1C [Compound A23, 1-[3-ethylsulfanyl-4-[5-methoxy-3-methyl-4-oxo-6-(trifluoromethyl)imidazo[4,5-c]pyridin-2-yl]phenyl]cyclopropanecarbonitrile]
percent effect (mortality or growth inhibition) at 200 ppm [1]: ≥ 80%
percent control (mortality, anti-feedant effect or growth inhibition) at 200 ppm [3]: ≥ 80%
percent effect (mortality or growth inhibition) at 200 ppm [4]: ≥ 80%
percent effect (mortality or growth inhibition) at 200 ppm [6]: ≥ 80%

CCS(=O)(=O)c1ccc(-n2ccnn2)nc1-c1nc2cc(C(F)(F)F)n(OC)c(=O)c2n1C [Compound A4, 2-[3-ethylsulfonyl-6-(triazol-1-yl)-2-pyridyl]-5-methoxy-3-methyl-6-(trifluoromethyl)imidazo[4,5-c]pyridin-4-one]
percent effect (mortality or growth inhibition) at 200 ppm [1]: ≥ 80%
mortality at 200 ppm [2]: ≥ 80%
mortality at 200 ppm [7]: ≥ 80%
percent control (mortality, anti-feedant effect or growth inhibition) at 200 ppm [3]: ≥ 80%
percent effect (mortality or growth inhibition) at 200 ppm [4]: ≥ 80%
mortality at 24 ppm [5]: ≥ 80%
percent effect (mortality or growth inhibition) at 200 ppm [6]: ≥ 80%

CCSc1cc(C(C)(C)C#N)ccc1-c1nc2cc(C(F)(F)F)n(OC)c(=O)c2n1C [Compound A25, 2-[3-ethylsulfanyl-4-[5-methoxy-3-methyl-4-oxo-6-(trifluoromethyl)imidazo[4,5-c]pyridin-2-yl]phenyl]-2-methyl-propanenitrile]
percent effect (mortality or growth inhibition) at 200 ppm [1]: ≥ 80%
percent effect (mortality or growth inhibition) at 200 ppm [4]: ≥ 80%

CCS(=O)(=O)c1cc(Cl)c(N)nc1-c1nc2cc(C(F)(F)F)n(OC)c(=O)c2n1C [Compound A14, 2-(6-amino-5-chloro-3-ethylsulfonyl-2-pyridyl)-5-methoxy-3-methyl-6-(trifluoromethyl)imidazo[4,5-c]pyridin-4-one]
percent effect (mortality or growth inhibition) at 200 ppm [1]: ≥ 80%
mortality at 200 ppm [2]: ≥ 80%
mortality at 200 ppm [7]: ≥ 80%
percent control (mortality, anti-feedant effect or growth inhibition) at 200 ppm [3]: ≥ 80%
percent effect (mortality or growth inhibition) at 200 ppm [4]: ≥ 80%
mortality at 24 ppm [5]: ≥ 80%
percent effect (mortality or growth inhibition) at 200 ppm [6]: ≥ 80%

CCSc1cc(C(C)(C)C#N)cnc1-c1nc2cc(C(F)(F)F)n(OC)c(=O)c2n1C [Compound A24, 2-[5-ethylsulfanyl-6-[5-methoxy-3-methyl-4-oxo-6-(trifluoromethyl)imidazo[4,5-c]pyridin-2-yl]-3-pyridyl]-2-methyl-propanenitrile]
percent effect (mortality or growth inhibition) at 200 ppm [1]: ≥ 80%
percent effect (mortality or growth inhibition) at 200 ppm [4]: ≥ 80%
percent effect (mortality or growth inhibition) at 200 ppm [6]: ≥ 80%

CCS(=O)(=O)c1cccnc1-c1nc2cc(C(F)(F)F)n(OC)c(=O)c2n1C [drawing 144, reference compound]
Mortality (%) ([2]; Myzus persicae (feeding/contact), concentration 50 ppm): 50%
Mortality (%) ([3]; concentration 12.5 ppm): 0%
Mortality (%) ([4]; concentration 50 ppm): 0%
Mortality (%) ([5]; Myzus persicae (systemic), concentration 1.5 ppm): 0%
Mortality (%) ([6]; concentration 12.5 ppm): 0%

CCSc1cc(Br)cnc1-c1nc2cc(C(F)(F)F)n(OC)c(=O)c2n1C [Compound A19, 2-(5-bromo-3-ethylsulfanyl-2-pyridyl)-5-methoxy-3-methyl-6-(trifluoromethyl)imidazo[4,5-c]pyridin-4-one]
percent effect (mortality or growth inhibition) at 200 ppm [1]: ≥ 80%
mortality at 200 ppm [2]: ≥ 80%
percent control (mortality, anti-feedant effect or growth inhibition) at 200 ppm [3]: ≥ 80%
percent effect (mortality or growth inhibition) at 200 ppm [4]: ≥ 80%
percent effect (mortality or growth inhibition) at 200 ppm [6]: ≥ 80%
